# Patent US20260176260A1, “DUAL RAF AND TUBULIN INHIBITORS AND METHODS OF USE THEREOF” (Deciphera Pharmaceuticals, LLC, priority 2023, published 2026)
# Read-outs that look alike come from different tables or passages of the source.
# Tests used:
# C-Raf kinase = biological target: T1, C-Raf kinase (Homo sapiens, UniProt P04049, Y340D/Y341D); assay: Biochemical assay for C-Raf (coupled pyruvate kinase/lactate dehydrogenase); conditions: Table 4; read-out: CRAF IC50
# T1 construct: C-Raf residues 306-end; Y340D, Y341D with N-; purchased Sigma
# HCT-116 cells = assay: HCT-116 cell proliferation assay (resazurin); format: cell-based; conditions: Homo sapiens
# Method: HCT-116 cells (catalog #CCL-247) are obtained from the American Type Culture Collect (ATCC, Manassas, VA). Briefly, cells are grown in McCoy's 5A supplemented with 10% characterized fetal bovine serum (Invitrogen, Carlsbad, CA) and 1% Penicillin/Streptomycin/L-Glutamine at 37° C., 5% CO2, and 95% humidity. Cells are expanded until reaching 70-95% confluency at which point they are sub-cultured or harvested for assay use. A serial dilution of test compound is dispensed into a 384-well black clear bottom plate in triplicate. 375 cells are added per well in 50 μL complete growth medium in the 384-well plate. Plates are incubated for 67 to 72 h at 37° C., 5% CO2, and 95% humidity. At the end of the incubation, 40 μL of a […] solution of resazurin (Sigma, St. Louis, MO) in PBS is added to each well of the plate and plates are incubated for an additional 4 to 5 h at 37° C., 5% CO2, and 95% humidity. Plates are read on a Synergy2 or equivalent reader (Biotek, Winooski, VT) using an excitation of 540 nm and an emission of 600 nm. Data is analyzed using Prism software (Graphpad, San Diego, CA) to calculate IC50 values.
# HPAF-II cells = assay: HPAF-II cell proliferation assay (resazurin); format: cell-based; conditions: Homo sapiens
# Method: HPAF-II cells (catalog #CRL-1997) are obtained from the American Type Culture Collect (ATCC, Manassas, VA). Briefly, cells are grown in Minimum Essential Media supplemented with 10% characterized fetal bovine serum (Invitrogen, Carlsbad, CA) and 1% Penicillin/Streptomycin/L-Glutamine at 37° C., 5% CO2, and 95% humidity. Cells are expanded until reaching 70-95% confluency at which point they are sub-cultured or harvested for assay use. A serial dilution of test compound is dispensed into a 384-well black clear bottom plate in triplicate. 750 cells are added per well in 50 μL complete growth medium in the 384-well plate. Plates are incubated for 115 to 120 h at 37° C., 5% CO2, and 95% humidity. At the end of the incubation, 40 μL of a […] solution of resazurin (Sigma, St. Louis, MO) in PBS is added to each well of the plate and plates are incubated for an additional 18 to 24 h at 37° C., 5% CO2, and 95% humidity. Plates are read on a Synergy2 or equivalent reader (Biotek, Winooski, VT) using an excitation of 540 nm and an emission of 600 nm. Data is analyzed using Prism software (Graphpad, San Diego, CA) to calculate IC50 values.
# Porcine Brain Tubulin = biological target: T2, Porcine Brain Tubulin (Sus scrofa, UniProt P02550+P02554); assay: Biochemical tubulin polymerization assay
# T2 construct: Porcine Brain Tubulin (T240); purchased Cytoskeleton, Inc T240; BK011P; host or cells: porcine brain
# MiaPaca-2 cells = assay: MiaPaca-2 cell proliferation assay (resazurin); format: cell-based; conditions: Homo sapiens, MIA PaCa-2
# Method: MiaPaca-2 cells (catalog #CRL-1420) are obtained from the American Type Culture Collect (ATTC, Manassas, VA). Briefly, cells were grown in DMVEM supplemented with […] fetal bovine serum (Invitrogen, Carlsbad, CA), 2.5% New Zealand sourced horse serum and 1% Penicillin/Streptomycin/L-Glutamine at 37° C., […], and […]. Cells are expanded until reaching […] at which point they are sub-cultured or harvested for assay use. For assays completed in 96-well plates, a serial dilution of test compound is dispensed into a 96-well black clear bottom plate in triplicate. Three thousand cells are added per well in 200 μL complete growth medium in the 96-well plate. Plates are incubated for 67 to 72 h at 37° C., 5% CO2, and 95% humidity. At the end of the incubation, 40 μL of a […] solution of resazurin (Sigma, St. Louis, MO) in PBS is added to each well of the plate and plates are incubated for an additional 5 to 6 h at 37° C., 5% CO2, and 95% humidity. For 384-well assays, a threefold, 8-point serial dilution of compound was spotted column wise into a 384 well black, clear bottom, tissue culture treated plate using the Beckman Coulter Echo 650. Likewise, a threefold, 8-point serial dilution of cobimetinib was spotted row wise into the 384 well black, clear bottom plate containing compound. DMSO concentration was constant across all wells at 0.4%. Seven hundred fifty cells are added per well in 50 μL complete growth medium in each 384-well plate. Plates are incubated for 67 to 72 h at 37° C., 5% CO2, and 95% humidity. At the end of the incubation, 10 μL of a 440 μM solution of resazurin (Sigma, St. Louis, MO) in PBS is added to each well of the plate and plates are incubated for an additional 4 to 6 h at 37° C., 5% CO2, and 95% humidity. Plates are read on a Synergy2 or equivalent reader (Biotek, Winooski VT) using an excitation of 540 nm and an emission of 600 nm. Data is analyzed using Prism software (Graphpad, San Diego, CA) to calculate IC50 values.
# [1] = tested on: tubulin polymerization in HCT-116 cells; assay: Cellular tubulin polymerization assay (pellet/supernatant a-tubulin, HCT-116 cells); format: cell-based
# Method: HCT-116 cells (catalog #CCL-247) are obtained from the American Type Culture Collect (ATCC, Manassas, VA). Briefly, cells are grown in McCoy's 5A supplemented with 10% characterized fetal bovine serum (Invitrogen, Carlsbad, CA) and 1% Penicillin/Streptomycin/L-Glutamine at 37° C., 5% CO2, and 95% humidity. Cells are expanded until reaching 70-95% confluency at which point they are sub-cultured or harvested for assay use. 450000 cells are added per well in 1500 μL complete growth medium in a tissue culture treated, 12-well plate. Plates are incubated for 18 to 24 h at 37° C., 5% CO2, and 95% humidity. At the end of the incubation, 2000 μL of base culture media is added to each well, followed by a serial dilution of compound. Plates are incubated for an additional 1 h at 37° C., 5% CO2, and 95% humidity. Lysates are generated by the addition of 100 μL Lysis and Microtubule Stabilization Buffer 1 (LMS01, Cytoskeleton Inc, Denver, CO) supplemented with GTP (BST06, Cytoskeleton Inc), ATP (BSA04, Cytoskeleton Inc), and Protease Inhibitor Cocktail Stock (PIC02, Cytoskeleton Inc). Cells are scraped off wells using a rubber cell scraper and collected in a clean 96-well plate. Lysates are centrifuged at 1000×g, 37° C. for 10 min and supernatant fraction is placed into an additional 96-well plate. The remaining pellet fraction is reconstituted in 100 μL LMS01 buffer and sonicated for 10 min. Pellet and Supernatant fractions are probed for a-tubulin via western blot analysis on the Jess System or equivalent (Bio-techne, Minneapolis, MN). Data is analyzed using Prism software (Graphpad, San Diego, CA) to calculate IC50 values.
# B-Raf kinase = biological target: T3, B-Raf kinase (Homo sapiens, UniProt P15056); assay: Biochemical assay for B-Raf (coupled pyruvate kinase/lactate dehydrogenase); conditions: Table 4; read-out: BRAF IC50
# T3 construct: purchased Sigma
# [2] = HCT-116, Table 4, read-out: HCT-116 IC50
# [3] = HPAF-II, Table 4, read-out: HPAF-II IC50
# [4] = Table 4, read-out: Tubulin Biochem IC50
# [5] = Table 5, HCT-116 cells, read-out: Tubulin Cellular
# [6] = Table 5, read-out: Tubulin Biochem
# T2 sequence (P02550 whole entry): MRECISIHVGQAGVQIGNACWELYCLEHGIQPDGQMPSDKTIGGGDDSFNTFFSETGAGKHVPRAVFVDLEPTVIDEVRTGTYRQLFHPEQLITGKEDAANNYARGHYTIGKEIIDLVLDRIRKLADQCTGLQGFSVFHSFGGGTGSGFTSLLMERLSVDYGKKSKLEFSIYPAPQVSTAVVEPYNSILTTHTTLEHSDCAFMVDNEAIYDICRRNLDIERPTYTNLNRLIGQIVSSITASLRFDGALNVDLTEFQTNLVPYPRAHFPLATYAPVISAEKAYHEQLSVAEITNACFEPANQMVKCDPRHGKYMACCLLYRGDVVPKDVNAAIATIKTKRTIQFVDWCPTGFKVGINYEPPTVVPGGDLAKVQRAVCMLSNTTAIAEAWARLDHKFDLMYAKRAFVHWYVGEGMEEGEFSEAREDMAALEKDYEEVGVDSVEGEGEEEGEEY
# T2 sequence (P02554 whole entry): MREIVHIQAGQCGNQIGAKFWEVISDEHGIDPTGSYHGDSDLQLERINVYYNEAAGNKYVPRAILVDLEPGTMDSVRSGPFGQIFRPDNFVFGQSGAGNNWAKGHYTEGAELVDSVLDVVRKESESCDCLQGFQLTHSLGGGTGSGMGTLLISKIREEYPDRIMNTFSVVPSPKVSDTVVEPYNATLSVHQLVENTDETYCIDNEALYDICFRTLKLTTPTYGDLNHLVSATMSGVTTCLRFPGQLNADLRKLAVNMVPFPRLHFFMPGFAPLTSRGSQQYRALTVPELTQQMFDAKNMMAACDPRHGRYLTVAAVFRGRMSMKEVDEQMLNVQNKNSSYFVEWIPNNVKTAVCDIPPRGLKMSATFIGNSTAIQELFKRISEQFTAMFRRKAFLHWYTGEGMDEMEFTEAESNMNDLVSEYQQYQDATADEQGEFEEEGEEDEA
# T1 sequence (P04049 307-648 Y340D/Y341D): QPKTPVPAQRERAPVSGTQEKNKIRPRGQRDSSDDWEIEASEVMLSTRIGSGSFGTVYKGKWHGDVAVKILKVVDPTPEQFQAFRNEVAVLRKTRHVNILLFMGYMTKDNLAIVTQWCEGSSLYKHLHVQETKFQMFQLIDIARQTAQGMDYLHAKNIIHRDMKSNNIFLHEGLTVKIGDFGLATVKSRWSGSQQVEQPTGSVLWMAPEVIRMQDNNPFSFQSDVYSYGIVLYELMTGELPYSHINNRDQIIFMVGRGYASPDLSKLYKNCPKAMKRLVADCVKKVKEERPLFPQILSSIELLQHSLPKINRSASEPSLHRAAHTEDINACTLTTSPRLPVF
# T3 sequence (P15056 416-766): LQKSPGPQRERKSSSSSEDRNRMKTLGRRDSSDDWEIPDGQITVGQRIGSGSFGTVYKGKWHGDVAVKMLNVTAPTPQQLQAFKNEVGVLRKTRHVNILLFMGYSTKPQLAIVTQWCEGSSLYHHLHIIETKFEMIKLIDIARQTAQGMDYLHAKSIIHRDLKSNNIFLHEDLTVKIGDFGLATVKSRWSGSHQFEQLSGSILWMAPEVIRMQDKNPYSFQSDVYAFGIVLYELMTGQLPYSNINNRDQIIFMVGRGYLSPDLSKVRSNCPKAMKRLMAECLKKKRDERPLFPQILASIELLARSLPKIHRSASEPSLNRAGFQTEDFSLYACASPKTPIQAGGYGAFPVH
Structure (SMILES),IC50 (C-Raf kinase) [nM],IC50 (HCT-116 cells; [2]) [nM],IC50 (Porcine Brain Tubulin; [4]) [nM],IC50 (HPAF-II cells; [3]) [nM],"IC50 (MiaPaca-2 cells; Table 5, read-out: MiaPaca-2) [nM]","IC50 (HCT-116 cells; Table 5, read-out: HCT-116) [nM]","IC50 (HPAF-II cells; Table 5, read-out: HPAF-II) [nM]",further results
"Cc1ccc(NC(=O)N2CC[C@@H](CC(F)(F)F)C2)cc1-c1cc(N[C@H](C)CO)nc(N2CCOCC2)c1 [Exarafenib, reference compound]",,,,,1000 to 10000,500 to 1000,1000 to 10000,"IC50 [1, 5]: 1000 to 10000 nM"
"CCCS(=O)(=O)Nc1ccc(F)c(C(=O)c2c[nH]c3ncc(-c4ccc(Cl)cc4)cc23)c1F [Vemurafenib, reference compound]",,,,,1000 to 10000,1000 to 10000,1000 to 10000,IC50 (Porcine Brain Tubulin; [6]): > 100000 nM
"CC(C)(C)c1[nH]cnc1/C=c1\[nH]c(=O)/c(=C/c2ccccc2)[nH]c1=O [plinabulin, reference compound]",,,,,,,,"IC50 ([1]; ratio of pellet to supernatant vs DMSO control, HCT-116 cells, read-out: IC50 of inhibition of tubulin polymerization, cellular tubulin assay (FIG. 2)): 5 nM"
"C[C@@H](NC(=O)c1ncnc(N)c1Cl)c1ncc(C(=O)Nc2cc(C(F)(F)F)c(Cl)cn2)s1 [Tovorafenib, reference compound]",,,,,1000 to 10000,1000 to 10000,1000 to 10000,"IC50 (Porcine Brain Tubulin; [6]): > 100000 nM; IC50 [1, 5]: 1000 to 10000 nM"

# Continued, in another order:
IC50 (C-Raf kinase) [nM],IC50 (HCT-116 cells; [2]) [nM],IC50 (Porcine Brain Tubulin; [4]) [nM],Structure (SMILES),IC50 (HPAF-II cells; [3]) [nM],"IC50 (MiaPaca-2 cells; Table 5, read-out: MiaPaca-2) [nM]","IC50 (HCT-116 cells; Table 5, read-out: HCT-116) [nM]","IC50 (HPAF-II cells; Table 5, read-out: HPAF-II) [nM]",further results
< 100,500 to 1000,> 100000,CNC(=O)c1cc(-c2cc(-c3cc(NC(=O)c4ccnc(C(C)(C)C#N)c4)c(F)cc3C)ccn2)ccn1 [reference compound],1000 to 10000,,,,
< 100,1000 to 10000,> 100000,CNC(=O)c1cc(-c2cc(-c3cc(NC(=O)c4cnnc(C(F)(F)F)c4)ccc3C)ccn2)ccn1 [reference compound],1000 to 10000,,,,"IC50 (B-Raf kinase): < 100 nM; IC50 (MiaPaca-2 cells; Table 4, read-out: MiaPaca-2 IC50): 1000 to 10000 nM"
< 100,1000 to 10000,> 100000,Cc1cc(-c2cc(NC(=O)c3ccnc(C(C)(C)F)c3)ccc2C)cc(-c2ccnc(C(N)=O)c2)n1 [reference compound],1000 to 10000,,,,IC50 (B-Raf kinase): < 100 nM
